Assay [1] deals with cultured cells. The conditions noted are these: N-acetylmannosamine added to culture medium; cited from earlier work.
Assay [2] deals with CHO cell line that had been genetically engineered to produce TNFR:Fc. Kind of assay: Fraction of TNFR:Fc eluting at high salt from an anion exchange column (relative extent of sialylation). The assay is classed as cell-based, Chinese hamster. The conditions noted are these: additives at 4 mM each in serum-free medium, 7 days at 30° C., FIG. 2. On the procedure:
The following experiment was done to determine which carbohydrate or combination of carbohydrates added to cell culture medium is able to induce the most sialylation of TNFR:Fc produced by the cells. The relative extent of sialylation was determined by measuring the fraction of TNFR:Fc produced by a cell culture that elutes from an anion exchange column only at a high salt concentration. This provides a rough measure of the extent of sialylation because proteins with more sialic acid require a higher salt concentration for elution from an anion exchange column. […] Cultures were incubated for 7 days at 30° C. with shaking at 150 revolutions per minute. TNFR:Fc was harvested from the medium after seven days of growth and pre-purified by Protein A affinity chromatography. Thereafter, the purified TNFR:Fc protein concentration was determined by measuring absorbance at 280 nanometers. […] At 22.1 minutes, the gradient was complete, and the column contained 100% Buffer B. Elution of protein was determined by monitoring absorbance at 280 nanometers, and a graph of these measurements versus time (relative to the time of loading) was recorded automatically as the protein eluted from the column. […] The fraction of TNFR:Fc that eluted at high salt was determined by comparing the area under the curve that eluted after soybean trypsin inhibitor with the total area under the curve. […]

Take `CC(=O)N[C@@H]1C(O)O[C@H](CO)[C@@H](O)[C@@H]1O` (some centres unmarked) [N-acetylmannosamine]: the “sialylation of a protein produced by the cultured cells” value in assay [1] is on record as “increased sialylation”.
In the case of `O=C[C@H](O)[C@@H](O)[C@@H](O)[C@H](O)CO` [galactose], in assay [2], the “sialylation of TNFR:Fc (high salt-eluting fraction compared to a batch produced without medium additives)” value is “increases in sialylation”.

The values above are taken from patent US7645609B2, “Method for controlling sialylation of proteins produced by mammalian cells” (Immunex Corporation, priority 2002, dated 2010).
